Experimental data as given in patent publication EP4467141A1, “PYRAZOLO-QUINOLINES AS SELECTIVE INHIBITORS OF GENOTOXIC STRESS-INDUCED IKK/NF- KB PATHWAYS FOR CANCER THERAPY” (Max-Delbrück-Centrum für Molekulare Medizin in der …, priority 2023, dated 2024).

Key:
Test in all cases: Kinase panel study
Format in all cases: biochemical
Settings in all cases: read-out: Percentage of inhibition; for inhibition at 1 µM: 1000nM; for inhibition at 10 µM: 10000nM
CDK5/p25 = biological target: T1, CDK5/p25 (Homo sapiens, UniProt Q00535)
T1 construct: purchased Thermo Fisher Scientific
T1 sequence (Q00535 whole entry): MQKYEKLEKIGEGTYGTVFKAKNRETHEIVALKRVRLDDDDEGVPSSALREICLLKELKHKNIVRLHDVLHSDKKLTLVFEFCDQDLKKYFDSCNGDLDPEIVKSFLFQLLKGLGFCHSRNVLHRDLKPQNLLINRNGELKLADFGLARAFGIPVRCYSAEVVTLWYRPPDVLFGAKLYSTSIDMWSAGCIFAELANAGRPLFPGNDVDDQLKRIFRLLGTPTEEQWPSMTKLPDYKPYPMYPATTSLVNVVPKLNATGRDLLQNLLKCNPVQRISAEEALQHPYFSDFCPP
T1 sequence (Q15078 99-307 partner limits assumed): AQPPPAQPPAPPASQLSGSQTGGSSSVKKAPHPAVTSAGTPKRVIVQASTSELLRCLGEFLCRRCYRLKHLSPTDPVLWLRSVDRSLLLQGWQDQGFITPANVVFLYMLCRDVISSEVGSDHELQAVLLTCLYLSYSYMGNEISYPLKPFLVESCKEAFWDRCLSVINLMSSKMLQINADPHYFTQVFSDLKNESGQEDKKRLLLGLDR
Summary of the method: (§1)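 Kinase inhibition was determined by a contract provider in cell-free ZLyte or Adapta assays. Results are expressed as % inhibition at 10 or 1 µM.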

PRKD2 (PKD2) = biological target: T2, PRKD2 (PKD2) (Homo sapiens, UniProt Q9BZL6)
T2 construct: purchased Thermo Fisher Scientific
T2 sequence (Q9BZL6 1-878): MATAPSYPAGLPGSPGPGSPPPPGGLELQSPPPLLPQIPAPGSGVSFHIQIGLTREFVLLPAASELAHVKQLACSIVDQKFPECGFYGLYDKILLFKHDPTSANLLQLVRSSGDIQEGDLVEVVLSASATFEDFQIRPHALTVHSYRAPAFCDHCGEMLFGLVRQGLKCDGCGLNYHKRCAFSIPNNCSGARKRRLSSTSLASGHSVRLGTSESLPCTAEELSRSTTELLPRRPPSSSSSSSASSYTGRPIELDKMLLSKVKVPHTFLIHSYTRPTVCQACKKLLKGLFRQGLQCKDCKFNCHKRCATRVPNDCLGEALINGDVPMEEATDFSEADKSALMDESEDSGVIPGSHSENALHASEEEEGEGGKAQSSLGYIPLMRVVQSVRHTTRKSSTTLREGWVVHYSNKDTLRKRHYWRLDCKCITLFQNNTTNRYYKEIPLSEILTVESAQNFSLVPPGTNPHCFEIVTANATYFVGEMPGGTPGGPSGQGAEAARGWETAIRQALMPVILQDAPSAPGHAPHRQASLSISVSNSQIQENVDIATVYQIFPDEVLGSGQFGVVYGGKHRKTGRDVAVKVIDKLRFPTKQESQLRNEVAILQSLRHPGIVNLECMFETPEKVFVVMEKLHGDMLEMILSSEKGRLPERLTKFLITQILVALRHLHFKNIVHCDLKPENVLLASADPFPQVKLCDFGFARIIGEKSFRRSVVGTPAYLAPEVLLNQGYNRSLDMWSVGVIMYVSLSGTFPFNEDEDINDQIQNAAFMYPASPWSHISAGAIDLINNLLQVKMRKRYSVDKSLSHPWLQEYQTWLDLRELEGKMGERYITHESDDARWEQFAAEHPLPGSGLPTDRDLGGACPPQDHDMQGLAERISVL
Summary of the method: as §1

STK22D (TSSK1) = biological target: T3, STK22D (TSSK1) (Homo sapiens, UniProt Q9BXA7)
T3 construct: purchased Thermo Fisher Scientific
T3 sequence (Q9BXA7 1-367): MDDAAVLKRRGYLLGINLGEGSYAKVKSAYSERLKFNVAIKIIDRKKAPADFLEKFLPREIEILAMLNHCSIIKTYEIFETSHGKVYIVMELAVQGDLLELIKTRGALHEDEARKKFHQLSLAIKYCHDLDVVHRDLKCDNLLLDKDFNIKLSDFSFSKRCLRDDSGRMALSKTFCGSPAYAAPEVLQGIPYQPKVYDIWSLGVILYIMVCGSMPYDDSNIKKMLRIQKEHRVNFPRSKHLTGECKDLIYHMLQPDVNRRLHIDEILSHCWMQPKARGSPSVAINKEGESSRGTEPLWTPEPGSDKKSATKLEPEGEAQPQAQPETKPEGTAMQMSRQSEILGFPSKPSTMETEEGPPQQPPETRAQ
Summary of the method: as §1

RET V804L = biological target: T4, RET V804L (Homo sapiens, UniProt P07949, V804L)
T4 construct: purchased Thermo Fisher Scientific
T4 sequence (P07949 29-1114 V804L): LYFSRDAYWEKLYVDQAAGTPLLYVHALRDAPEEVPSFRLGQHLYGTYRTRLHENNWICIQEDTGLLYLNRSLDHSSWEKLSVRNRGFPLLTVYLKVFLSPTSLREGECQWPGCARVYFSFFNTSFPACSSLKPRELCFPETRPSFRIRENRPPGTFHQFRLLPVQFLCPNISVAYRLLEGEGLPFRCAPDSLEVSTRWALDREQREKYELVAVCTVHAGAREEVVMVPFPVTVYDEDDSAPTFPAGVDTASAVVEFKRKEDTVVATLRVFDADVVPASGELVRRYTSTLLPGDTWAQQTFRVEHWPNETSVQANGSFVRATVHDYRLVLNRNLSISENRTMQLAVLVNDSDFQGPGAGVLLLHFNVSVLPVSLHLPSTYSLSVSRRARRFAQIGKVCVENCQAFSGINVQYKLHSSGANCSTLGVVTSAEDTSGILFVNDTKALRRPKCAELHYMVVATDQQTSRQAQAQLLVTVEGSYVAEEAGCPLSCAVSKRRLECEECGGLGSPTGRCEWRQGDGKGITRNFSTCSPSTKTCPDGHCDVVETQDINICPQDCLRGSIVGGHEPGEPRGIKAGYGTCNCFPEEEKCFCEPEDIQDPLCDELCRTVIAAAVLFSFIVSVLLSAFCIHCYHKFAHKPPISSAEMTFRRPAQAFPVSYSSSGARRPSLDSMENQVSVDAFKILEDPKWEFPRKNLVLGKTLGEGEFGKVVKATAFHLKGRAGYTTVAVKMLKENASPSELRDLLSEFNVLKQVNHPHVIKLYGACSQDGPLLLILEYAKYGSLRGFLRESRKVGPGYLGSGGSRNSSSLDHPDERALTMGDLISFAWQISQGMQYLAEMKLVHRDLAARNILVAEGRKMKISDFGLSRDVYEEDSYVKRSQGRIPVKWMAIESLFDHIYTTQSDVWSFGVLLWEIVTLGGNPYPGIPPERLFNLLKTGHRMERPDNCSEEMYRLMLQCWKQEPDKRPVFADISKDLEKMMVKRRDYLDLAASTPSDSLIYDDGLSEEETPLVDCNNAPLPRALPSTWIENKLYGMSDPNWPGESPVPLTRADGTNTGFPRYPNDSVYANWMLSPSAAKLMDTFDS
Summary of the method: as §1

CDK17/cyclin Y = biological target: T5, CDK17/cyclin Y (Homo sapiens, UniProt Q00537)
T5 construct: purchased Thermo Fisher Scientific
Summary of the method: as §1

CDK4/cyclin D1 = biological target: T6, CDK4/cyclin D1 (Homo sapiens, UniProt P11802)
T6 construct: purchased Thermo Fisher Scientific
T6 sequence (P11802 whole entry): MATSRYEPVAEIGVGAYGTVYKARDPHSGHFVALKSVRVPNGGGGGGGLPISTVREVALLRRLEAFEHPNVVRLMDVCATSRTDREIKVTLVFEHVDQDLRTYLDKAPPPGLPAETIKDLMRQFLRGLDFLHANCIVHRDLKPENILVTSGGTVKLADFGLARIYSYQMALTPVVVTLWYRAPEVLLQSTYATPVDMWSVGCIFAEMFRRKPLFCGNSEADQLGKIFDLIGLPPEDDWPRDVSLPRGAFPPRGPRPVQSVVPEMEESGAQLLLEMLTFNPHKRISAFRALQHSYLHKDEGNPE
T6 sequence (P24385 whole entry partner): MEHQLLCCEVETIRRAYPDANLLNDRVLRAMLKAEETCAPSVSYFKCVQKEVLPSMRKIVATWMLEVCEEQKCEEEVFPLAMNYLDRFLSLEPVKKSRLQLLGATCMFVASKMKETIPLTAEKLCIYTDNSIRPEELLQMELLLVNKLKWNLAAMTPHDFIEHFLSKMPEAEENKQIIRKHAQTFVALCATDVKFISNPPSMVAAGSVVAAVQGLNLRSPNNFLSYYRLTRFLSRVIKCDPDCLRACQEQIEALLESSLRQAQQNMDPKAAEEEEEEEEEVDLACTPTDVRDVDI
Summary of the method: as §1

CSK = biological target: T7, CSK (Homo sapiens, UniProt P41240)
T7 construct: purchased Thermo Fisher Scientific
T7 sequence (P41240 whole entry): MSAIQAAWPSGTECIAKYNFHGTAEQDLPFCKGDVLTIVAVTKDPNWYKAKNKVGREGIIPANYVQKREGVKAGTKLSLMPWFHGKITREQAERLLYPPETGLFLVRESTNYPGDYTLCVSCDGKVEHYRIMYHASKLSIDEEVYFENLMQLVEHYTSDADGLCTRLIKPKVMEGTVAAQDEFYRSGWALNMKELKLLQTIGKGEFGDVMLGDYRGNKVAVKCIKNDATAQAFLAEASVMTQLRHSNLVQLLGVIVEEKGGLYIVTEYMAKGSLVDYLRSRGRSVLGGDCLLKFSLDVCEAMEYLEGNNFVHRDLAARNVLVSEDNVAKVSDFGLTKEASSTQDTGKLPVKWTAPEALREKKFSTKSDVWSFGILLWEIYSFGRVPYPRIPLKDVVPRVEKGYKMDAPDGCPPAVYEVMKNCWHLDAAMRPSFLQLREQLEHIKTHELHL
Summary of the method: as §1

RPS6KB1 (p70S6K) = biological target: T8, RPS6KB1 (p70S6K) (Homo sapiens, UniProt P23443)
T8 construct: purchased Thermo Fisher Scientific
T8 sequence (P23443 whole entry): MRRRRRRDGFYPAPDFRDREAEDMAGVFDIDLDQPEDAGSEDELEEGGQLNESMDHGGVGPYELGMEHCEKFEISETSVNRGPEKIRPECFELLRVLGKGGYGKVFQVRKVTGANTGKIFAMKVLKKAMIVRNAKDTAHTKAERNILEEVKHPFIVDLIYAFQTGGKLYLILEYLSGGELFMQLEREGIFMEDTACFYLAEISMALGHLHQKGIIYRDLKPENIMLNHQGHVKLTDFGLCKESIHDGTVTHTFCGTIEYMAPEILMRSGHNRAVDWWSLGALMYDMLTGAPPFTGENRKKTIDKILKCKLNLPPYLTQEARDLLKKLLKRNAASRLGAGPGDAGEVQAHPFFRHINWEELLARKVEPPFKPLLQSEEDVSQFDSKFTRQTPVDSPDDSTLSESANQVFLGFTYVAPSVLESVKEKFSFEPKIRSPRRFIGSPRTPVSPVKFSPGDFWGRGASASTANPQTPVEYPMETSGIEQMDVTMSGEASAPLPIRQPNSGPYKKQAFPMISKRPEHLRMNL
Summary of the method: as §1

EGFR (ErbB1) L861Q = biological target: T9, EGFR (ErbB1) L861Q (Homo sapiens, UniProt P00533, L861Q)
T9 construct: purchased Thermo Fisher Scientific
Summary of the method: as §1

ERBB2 (HER2) = biological target: T10, ERBB2 (HER2) (Homo sapiens, UniProt P04626)
T10 construct: purchased Thermo Fisher Scientific
T10 sequence (P04626 23-1255): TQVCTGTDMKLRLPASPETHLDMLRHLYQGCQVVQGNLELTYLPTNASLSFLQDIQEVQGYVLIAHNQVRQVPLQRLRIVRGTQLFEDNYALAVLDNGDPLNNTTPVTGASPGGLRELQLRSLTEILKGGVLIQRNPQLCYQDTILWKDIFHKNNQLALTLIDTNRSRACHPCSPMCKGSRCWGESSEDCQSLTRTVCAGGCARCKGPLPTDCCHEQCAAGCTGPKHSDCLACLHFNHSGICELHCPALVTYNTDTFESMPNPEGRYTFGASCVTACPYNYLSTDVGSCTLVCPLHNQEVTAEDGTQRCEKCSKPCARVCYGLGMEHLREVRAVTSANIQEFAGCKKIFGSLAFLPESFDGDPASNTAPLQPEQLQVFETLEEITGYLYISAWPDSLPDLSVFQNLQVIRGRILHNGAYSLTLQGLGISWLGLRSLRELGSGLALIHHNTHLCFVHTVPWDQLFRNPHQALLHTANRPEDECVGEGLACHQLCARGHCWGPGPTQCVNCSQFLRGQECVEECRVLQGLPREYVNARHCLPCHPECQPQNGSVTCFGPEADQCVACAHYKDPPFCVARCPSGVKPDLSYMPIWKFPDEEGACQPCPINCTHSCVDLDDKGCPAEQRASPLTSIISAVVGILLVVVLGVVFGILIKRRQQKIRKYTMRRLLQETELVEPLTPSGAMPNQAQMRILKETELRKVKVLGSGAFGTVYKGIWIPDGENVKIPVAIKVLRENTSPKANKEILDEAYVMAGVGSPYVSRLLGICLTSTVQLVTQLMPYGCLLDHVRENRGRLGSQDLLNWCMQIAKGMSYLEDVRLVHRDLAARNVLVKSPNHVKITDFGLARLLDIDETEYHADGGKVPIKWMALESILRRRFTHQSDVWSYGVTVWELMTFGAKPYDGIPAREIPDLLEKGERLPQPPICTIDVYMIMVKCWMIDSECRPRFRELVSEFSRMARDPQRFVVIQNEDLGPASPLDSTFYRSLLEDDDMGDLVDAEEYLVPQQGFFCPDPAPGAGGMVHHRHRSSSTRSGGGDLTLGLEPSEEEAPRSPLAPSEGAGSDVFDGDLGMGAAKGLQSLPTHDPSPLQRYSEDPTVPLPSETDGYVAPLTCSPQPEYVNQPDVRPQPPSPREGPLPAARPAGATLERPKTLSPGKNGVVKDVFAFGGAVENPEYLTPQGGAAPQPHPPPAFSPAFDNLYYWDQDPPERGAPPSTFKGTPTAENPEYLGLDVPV
Summary of the method: as §1

HIPK2 = biological target: T11, HIPK2 (Homo sapiens, UniProt Q9H2X6)
T11 construct: purchased Thermo Fisher Scientific
Summary of the method: as §1

RET A883F = biological target: T12, RET A883F (Homo sapiens, UniProt P07949, A883F)
T12 construct: purchased Thermo Fisher Scientific
T12 sequence (P07949 29-1114 A883F): as the sequence (P07949 29-1114 V804L) above, with L776V, A855F counted along it
Summary of the method: as §1

Compound | inhibition at 1 µM (CDK5/p25) [%] | inhibition at 10 µM (CDK5/p25) [%] | inhibition at 1 µM (PRKD2 (PKD2)) [%] | inhibition at 10 µM (PRKD2 (PKD2)) [%] | inhibition at 1 µM (STK22D (TSSK1)) [%] | inhibition at 10 µM (STK22D (TSSK1)) [%] | inhibition at 1 µM (RET V804L) [%] | inhibition at 10 µM (RET V804L) [%] | inhibition at 1 µM (CDK17/cyclin Y) [%] | inhibition at 10 µM (CDK17/cyclin Y) [%] | inhibition at 1 µM (CDK4/cyclin D1) [%] | inhibition at 10 µM (CDK4/cyclin D1) [%] | inhibition at 1 µM (CSK) [%] | inhibition at 10 µM (CSK) [%] | inhibition at 1 µM (RPS6KB1 (p70S6K)) [%] | inhibition at 10 µM (RPS6KB1 (p70S6K)) [%] | inhibition at 1 µM (EGFR (ErbB1) L861Q) [%] | inhibition at 10 µM (EGFR (ErbB1) L861Q) [%] | inhibition at 1 µM (ERBB2 (HER2)) [%] | inhibition at 10 µM (ERBB2 (HER2)) [%] | also measured
COc1ccc2c(c1OC)c(=O)n1c3ccc(O)cc3c3ccnc2c31 [MW01, 5-Hydroxy-10,11-dimethoxy-9H-benzo[c]indolo[3,2,1-ij][1,5]naphthyridin-9-one] | 4 | 12 | 38 | 71 | 11 | 22 | 15 | 38 | 3 | 9 | -8 | -4 | 11 | 18 | 19 | 15 | -9 | 8 | 2 | 4 | inhibition at 1 µM (HIPK2): 48%; inhibition at 10 µM (HIPK2): 74%; inhibition at 1 µM (RET A883F): 10%; inhibition at 10 µM (RET A883F): 24%
COc1ccc2cc3c(N)nn(C(=O)c4cccc(N(C)C)c4)c3nc2c1 [MW05, (3-Amino-7-methoxypyrazolo[3,4-b]quinolin-1-yl)-[3-(dimethylamino)phenyl]methanone] | 4 | 8 | 11 | 10 | 2 | 5 | 2 | 0 | 8 | 21 | -3 | -1 | 9 | 13 | 12 | 7 | -6 | -18 | -5 | -19 | inhibition at 1 µM (HIPK2): 4%; inhibition at 10 µM (HIPK2): 13%; inhibition at 1 µM (RET A883F): 7%; inhibition at 10 µM (RET A883F): 3%
